Assay results: patent publication US10913752B2, “Bivalent bromodomain inhibitors and uses thereof” (Dana-Farber Cancer Institute, Inc., priority 2015, dated 2021)
pIC50, pKd: −log10 of the molar value. Entries after “also recorded” stand apart in the source; their conditions may differ.

Legend:
[1] = system: NMC797 and MV4; 11 cells; test: Cellular assays, cell lines not told apart (NMC797 and MV4;11); type: cell-based, human
Text: Analysis of Cell Viability by ATPLite

[2] = Mouse pharmacokinetics (cassette and single PK); type: in vivo, CD1 mice; settings: mice
Method: FIGS. 9a-9b. Cassette PK properties of bivalent inhibitors. FIGS. 9a and 9b show PK parameters of mice 5-in-1 cassette PK. Five compounds (1 mg/kg) were intravenously administered to CD1 mice (n=3).
FIGS. 10a-10b. Individual PK properties of bivalent inhibitors. […] (6S+2S)-PEG0 (50 mg/kg) was intraperitoneally administered to CD1 mice (n=3). […] (6S+6S)-PEG7 (50 mg/kg) was intraperitoneally administered to CD1 mice (n=3).

[3] = target: T1, neurokinin NK2 receptor (Homo sapiens, UniProt P21452); test: Receptor profiling, [Nleu-10]-NKA radioligand binding; settings: 1 μM
T1 construct: purchased CEREP (Eurofins, Paris, France), ExpresSProfile
T1 sequence (P21452 whole entry): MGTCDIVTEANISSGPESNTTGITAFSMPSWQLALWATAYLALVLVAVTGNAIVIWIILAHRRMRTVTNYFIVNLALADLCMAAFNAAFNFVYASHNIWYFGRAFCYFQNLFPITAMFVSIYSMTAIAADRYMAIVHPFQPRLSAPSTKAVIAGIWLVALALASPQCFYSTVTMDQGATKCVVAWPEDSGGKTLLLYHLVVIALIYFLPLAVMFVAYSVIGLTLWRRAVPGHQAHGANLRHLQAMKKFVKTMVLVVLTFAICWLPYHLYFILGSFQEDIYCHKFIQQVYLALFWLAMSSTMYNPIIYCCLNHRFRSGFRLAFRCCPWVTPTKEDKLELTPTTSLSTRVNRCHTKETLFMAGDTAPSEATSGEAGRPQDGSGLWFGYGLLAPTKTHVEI
Text: Receptor Profiling Studies

[4] = system: wild-type BRD4(1,2); test: Size-exclusion chromatography, wild-type tandem construct; settings: half an equivalence of MT1
[5] = system: BRD4(1,2^MUT) (N433A); test: Size-exclusion chromatography, second bromodomain mutant; settings: half an equivalence of MT1
[6] = system: BRD4(1^MUT,2) (N140A); test: Size-exclusion chromatography, first bromodomain mutant; settings: half an equivalence of MT1
[7] = system: BRD2, 3 and 4; test: Cellular thermal shift assay (CETSA); type: cell-based, human; settings: MV411 cells
Method: Cellular Thermal Shift Assay (CETSA)
Compound or DMSO was incubated with 4×10^6 MV411 cells for 1 hr at 37° C. Cells were put on ice and washed with PBS and transferred to PCR tubes. Supernatant was aspirated to leave ˜5 μl in each tube and then cells were heat shocked in a thermocycler at 48.5° C. for 3 min to denature proteins. Cells were then allowed to cool at RT for 3 min and then resuspended in 35 μl lysis buffer (50 mM Tris-HCl pH 7.5, 5% glycerol, 100 mM NaCl, 1.5 mM MgCl, 0.2% NP-40+protease inhibitor cocktail (Halt)) and freeze-thawed 3 times with liquid nitrogen to lyse cells. Lysates were then spun at 20,000×g for 20 min to clarify and pellet aggregated protein. Supernatant was boiled with LDS and split into three samples for immunoblotting. Bands were quantified using Image Studio™ software and plotted using GraphPad PRISM v6 as triplicate means±SEM.

[8] = system: MV4; 11 cells; test: Immunoblot for caspase-3 and PARP cleavage in MV4;11 cells; type: cell-based, human; settings: 100 nM
Method: (§1) Cells were lysed with RIPA buffer supplemented with protease inhibitor cocktail (Roche) and 0.1% benzonase (Novagen) on ice for 20 minutes. The lysates were spun at 20,000×g for 15 minutes at 4° C. and protein concentration was determined by a BCA assay (Pierce). The following antibodies were used in this study: BRD4 (Bethyl labs), c-MYC and actin (both Santa Cruz), HEXIM1, PARP, cleaved caspase 3 (all Cell Signaling Technology). Blots were imaged using fluorescence-labeled secondary antibodies (LI-COR) on the OdysseyCLxImager (LI-COR).

[9] = system: MV4; 11 human leukemia cells (mCherry+, Luciferase+); test: Disseminated leukemia xenograft, second (survival) study; type: in vivo, mice (NSG); settings: 44.2 μmol/kg
Text: A drug holiday was given for 2 days (day 29-30), Treatment resumed for 5 more days (31-35) and then ended. Mice were monitored and sacrificed when hind-limb paralysis was evident or body weight dropped by 15%.

[10] = system: 55 ligand receptors, ion channels, and transport proteins; test: Receptor profiling (ExpresSProfile, CEREP); settings: 1 μM, more than 50 tested
[11] = system: MV4; 11 human leukemia cells (mCherry+, Luciferase+); test: Disseminated leukemia xenograft, first study; set-up: mCherry+ leukemic burden in bone marrow by FACS: dose or concentration left out as unconfirmed
[12] = target: T2, BRD4(1) (Homo sapiens, UniProt O60885); test: BRD4(1) AlphaScreen (competition with biotinylated-JQ1); type: binding; set-up: human BRD4 covering residues 44-168 (His-BRD4(1)) or 333-460 (His-BRD4(2)); made in house; host or cells: E. coli BL21 (DE3); settings: for biochemical activity (in words): biochemical assay, compared with JQ1
Method: BRD4(1) and BRDT(1) AlphaScreen™
Assays were performed with minimal modifications from the manufacturer's protocol (PerkinElmer, USA). All reagents were diluted in AlphaScreen™ buffer (50 mM HEPES, 150 mM NaCl, 0.1% w/v BSA, 0.01% w/v Tween20, pH 7.5) and allowed to equilibrate to room temperature prior to addition to plates. After addition of Alpha beads to master solutions all subsequent steps were performed under low light conditions. […] Plates were spun down at 150×g, 100 nL of compound in DMSO from stock plates were added by pin transfer using a Janus Workstation (PerkinElmer). The streptavidin-coated donor beads (10 μg/ml final) were added as with previous in a 2×, 10 μL volume. Following this addition, plates were sealed with foil to prevent light exposure and evaporation. The plates were spun down again at 150×g.

[13] = target: T3, CBP (Homo sapiens, UniProt Q92793); test: BROMOscan, CBP; type: binding
T3 construct: purchased DiscoveRx (BROMOscan)
T3 sequence (Q92793 1085-1192 limits assumed): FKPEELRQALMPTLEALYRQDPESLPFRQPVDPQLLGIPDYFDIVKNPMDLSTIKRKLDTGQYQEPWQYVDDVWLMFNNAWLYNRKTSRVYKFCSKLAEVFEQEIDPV
Text: (§2) To further profile bivalent inhibitors, fluorescent polarization (FP) and phage-based, multiplexed bromodomain displacement assays (BROMOscan™, DiscoveRx) were utilized.

[14] = target: T4, EP300 (Homo sapiens, UniProt Q09472); test: BROMOscan, EP300; type: binding
T4 construct: purchased DiscoveRx (BROMOscan)
T4 sequence (Q09472 1049-1156 limits assumed): as the sequence (Q92793 1085-1192 limits assumed) above, with N47S, V73I, F93Y, A98S counted along it
Text: as §2

[15] = target: T5, WDR9(2) (Homo sapiens, UniProt Q9NSI6); test: BROMOscan, WDR9(2); type: binding
T5 construct: purchased DiscoveRx (BROMOscan)
T5 sequence (Q9NSI6 1313-1418 limits assumed): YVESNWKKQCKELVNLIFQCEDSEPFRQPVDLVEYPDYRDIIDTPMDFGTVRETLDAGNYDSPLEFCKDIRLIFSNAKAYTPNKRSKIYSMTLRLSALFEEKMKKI
Text: as §2

[16] = system: MYC; test: Immunoblot for MYC in MV4;11 cells; type: cell-based, human
Method: as §1

[17] = system: HEXIM1; test: Immunoblot for HEXIM1 in MV4;11 cells; type: cell-based, human
Method: as §1

[18] = target: T6, BRD4 (Homo sapiens, UniProt O60885); test: Immunoblot for BRD4 protein stability (degradation); type: cell-based; settings: immunoblots following compound treatment
T6 construct: endogenous in cells; host or cells: MV4;11
Method: as §1

[19] = target: BRD4(2) (Homo sapiens, UniProt O60885); test: BROMOscan, BRD4(2)
[20] = target: BRD4(full) (Homo sapiens, UniProt O60885); test: BROMOscan, full length protein
[21] = target: BRD4(1,2) (Homo sapiens, UniProt O60885); test: BROMOscan, tandem bromodomain construct
[22] = target: T2, BRD4(1); test: BROMOscan phage-based bromodomain displacement, BRD4(1)
[23] = system: NMC797 cells (BRD4-rearranged NUT midline carcinoma); test: cells; settings: Homo sapiens, NMC-797, 72 h, read-out: IC50, proliferation
Method: Cells were cultured at 37° C. with 5% CO2 in either DMEM (NMC797) or RPMI1640 (MV4; 11) supplemented with 10% FBS (Sigma), 100 U/mL penicillin, 100 μg/mL streptomycin, and 2 mM glutamine (Gibco). Cells tested negative for mycoplasma using the MycoAlert™ kit (Lonza).
Cells were plated at 1000 cells/well in 50 μL/well of media in 384 well white culture plates (Thermo). NMC797 cells were allowed to adhere overnight before adding 100 μL of compound in DMSO from compound stock plates using a Janus Workstation pin tool (PerkinElmer, USA). […] Cell viability was read out using the ATPlite kit (PerkinElmer). Plates were brought to room temperature prior to reagent addition. Lyophilized powder was resuspended in lysis buffer and diluted 1:2 with DI water.

Methyl 2-((S)-4-(4-chlorophenyl)-2-((2-(2-((S)-4-(4-chlorophenyl)-2,3,9-trimethyl-6H-thieno[3,2-f][1,2,4]triazolo[4,3-a][1,4]diazepin-6-yl)acetamido)ethyl)carbamoyl)-3,9-dimethyl-6H-thieno[3,2-f][1,2,4]triazolo[4,3-a][1,4]diazepin-6-yl)acetate [MT1]
cellular activity (in words) ([1]; 11, compared with JQ1): translated well in cellular activities | PK properties (in words) [2]: improved PK properties | exposure in vivo (in words) [2]: highly prolonged exposure in vivo | inhibition of radioligand agonist binding [3]: only partial inhibition of binding | dimerization by SEC [4]: absence of dimerization | dimerization by SEC [5]: Complete dimerization | dimerization by SEC [6]: partial dimerization | concentrations needed for stabilization, compared with JQ1 [7]: lower concentrations | thermal stabilization of BET proteins ([7]; 48.5° C. heat shock): stabilized BRD2, 3 and 4 in a concentration dependent manner | apoptosis by caspase-3 and PARP cleavage [8]: Significant apoptosis | body weight after drug withdrawal [9]: recovered body weight after drug was withdrawn | disease monitored by bioluminescence ([9]; compared to JQ1): significantly reduced | overall survival ([9]; compared to vehicle or JQ1): significantly increased overall survival | mice sacrificed due to emaciation from drug toxicity ([9]; of 11 mice): two | off-target effects on receptors and ion channels [10]: limited activity; also recorded: few off-target effects | leukemic burden by bioluminescence imaging ([11]; half an equivalence (22.1 μmol/kg), 14 days, compared to vehicle or JQ1): significantly reduced leukemic burden | mCherry+ leukemic burden in bone marrow by FACS ([11]; post-mortem, MT1 at 22.1): significantly decreased

COC(=O)C[C@@H]1N=C(c2ccc(Cl)cc2)c2c(sc(C(=O)NCCNC(=O)C[C@@H]3N=C(c4ccc(Cl)cc4)c4c(sc(C)c4C)-n4c(C)nnc43)c2C)-n2c(C)nnc21 [(6+6)-PEG1, Methyl 2-((S)-4-(4-chlorophenyl)-2-((2-(2-((S)-4-(4-chlorophenyl)-2,3,9-trimethyl-6H-thieno[3,2-f][1,2,4]triazolo[4,3-a][1,4]diazepin-6-yl)acetamido)ethyl)carbamoyl)-3,9-dimethyl-6H-thieno[3,2-f][1,2,4]triazolo[4,3-a][1,4]diazepin-6-yl)acetate]
cellular activity (in words) ([1]; 11, compared with JQ1): did not show improved activity | cellular activity (in words) ([1]; 11, compared with JQ1, listed as (6+6) homodimer): did not increase biochemical or cellular activity | biochemical activity (in words) [12]: did not show improved activity | biochemical activity (in words) ([12]; listed as (6+6) homodimer): did not increase biochemical or cellular activity

COC(=O)C[C@@H]1N=C(c2ccc(Cl)cc2)c2c(sc(C(=O)NCCNC(=O)C[C@@H]3N=C(c4ccc(Cl)cc4)c4c(sc(C)c4C)-n4c(C)nnc43)c2C)-n2c(C)nnc21 [(6S+2S)-PEG0, Methyl 2-((S)-4-(4-chlorophenyl)-2-((2-(2-((S)-4-(4-chlorophenyl)-2,3,9-trimethyl-6H-thieno[3,2-f][1,2,4]triazolo[4,3-a][1,4]diazepin-6-yl)acetamido)ethyl)carbamoyl)-3,9-dimethyl-6H-thieno[3,2-f][1,2,4]triazolo[4,3-a][1,4]diazepin-6-yl)acetate]
PK properties (in words) [2]: comparable PK properties to MT1

COC(=O)C[C@@H]1N=C(c2ccc(Cl)cc2)c2c(sc(C(=O)NCCOCCNC(=O)C[C@@H]3N=C(c4ccc(Cl)cc4)c4c(sc(C)c4C)-n4c(C)nnc43)c2C)-n2c(C)nnc21 [(6S+2S)-PEG1, Methyl 2-((S)-4-(4-chlorophenyl)-2-((2-(2-(2-((S)-4-(4-chlorophenyl)-2,3,9-trimethyl-6H-thieno[3,2-f][1,2,4]triazolo[4,3-a][1,4]diazepin-6-yl)acetamido)ethoxy)ethyl)carbamoyl)-3,9-dimethyl-6H-thieno[3,2-f][1,2,4]triazolo[4,3-a][1,4]diazepin-6-yl)acetate]
cellular activity (in words) ([1]; 11, compared with JQ1): single-digit to sub-nanomolar activity | pKd [13]: 5.60 | pKd [14]: 5.30 | pKd [15]: 5.00 | time of maximum effect on MYC ([16]; 10 nM): 2 h | lowest concentration with MYC downregulation ([16]; within two hours): 10 nM | time points of HEXIM1 upregulation [17]: 4 to 24 h | effect on BRD4 protein stability [18]: No effect on protein stability | displacement of phage (in words) [19]: picomolar displacement | displacement of phage (in words) [20]: picomolar displacement | displacement of phage (in words) [21]: picomolar displacement | displacement of phage (in words) [22]: picomolar displacement | biochemical activity (in words) [12]: single-digit to sub-nanomolar activity

COC(=O)C[C@@H]1N=C(c2ccc(Cl)cc2)c2c(sc(C(=O)NCCOCCNC(=O)c3sc4c(c3C)C(c3ccc(Cl)cc3)=N[C@@H](CC(=O)OC)c3nnc(C)n3-4)c2C)-n2c(C)nnc21 [(2+2)-PEG1, Dimethyl 2,2′-((6S,6′S)-(((oxybis(ethane-2,1-diyl))bis(azanediyl))bis(carbonyl))bis(4-(4-chlorophenyl)-3,9-dimethyl-6H-thieno[3,2-f][1,2,4]triazolo[4,3-a][1,4]diazepine-2,6-diyl))diacetate]
cellular activity (in words) ([1]; 11, compared with JQ1): not properly reflected in cellular activity | cellular activity (in words) ([1]; 11, compared with JQ1, listed as (2+2) homodimer): did not translate into cellular activity | pIC50 ([12]; AlphaScreen, BRD4(1)): 8.93 | fold increase in biochemical potency / inhibitory activity ([12]; BRD4(1), relative to monomeric inhibitor): 20 fold

COc1cc2c(cc1-c1c(C)noc1C)ncc1[nH]c(=O)n([C@H](C)c3ccccn3)c12 [I-BET151, reference compound]
cellular activity (in words) ([1]; 11, compared with JQ1): comparable performance to JQ1 | biochemical activity (in words) [12]: comparable performance to JQ1

Cc1sc2c(c1C)C(c1ccc(Cl)cc1)=N[C@@H](CC(=O)OC(C)(C)C)c1nnc(C)n1-2 [JQ1, reference compound]
pIC50 [23]: 7.16
